Data as given in ChEMBL document CHEMBL1629580, “Sec- and Tat-dependent translocation of beta-lactamases across the Escherichia coli inner membrane” (2009).
In brackets after ≈: the same amount, converted by molar mass.

Legend:
Escherichia coli [1] = assay: Antimicrobial activity against mreB-deficient Escherichia coli YLS-3 expressing beta-lactamase TEM-1 by liquid microdilution method; type: functional
Escherichia coli [2] = assay: Antimicrobial activity against translocase tatC-deficient Escherichia coli B1LK0A harboring beta-lactamase CTX-M-14 by liquid microdilution method; type: functional
Escherichia coli [3] = assay: Antimicrobial activity against Escherichia coli MC4100A harboring beta-lactamase L1 by liquid microdilution method; type: functional
Escherichia coli [4] = assay: Antimicrobial activity against Escherichia coli MC4100A harboring beta-lactamase CTX-M-14 by liquid microdilution method; type: functional
Escherichia coli [5] = assay: Antimicrobial activity against Escherichia coli MC4100A expressing beta-lactamase TEM-1 by liquid microdilution method; type: functional
Escherichia coli [6] = assay: Antimicrobial activity against Escherichia coli CU164A harboring beta-lactamase L1 by liquid microdilution method; type: functional
Escherichia coli [7] = assay: Antimicrobial activity against mreB-deficient Escherichia coli YLS-3 harboring beta-lactamase L2 by liquid microdilution method; type: functional
Escherichia coli [8] = assay: Antimicrobial activity against translocase tatC-deficient Escherichia coli B1LK0A harboring beta-lactamase AmpC by liquid microdilution method
Escherichia coli [9] = assay: Antimicrobial activity against Escherichia coli MC4100A harboring beta-lactamase L2 by liquid microdilution method
Escherichia coli [10] = assay: Antimicrobial activity against translocase tatC-deficient Escherichia coli B1LK0A expressing beta-lactamase TEM-1 by liquid microdilution method; type: functional
Escherichia coli [11] = assay: Antimicrobial activity against translocase tatC-deficient Escherichia coli B1LK0A harboring beta-lactamase L1 by liquid microdilution method; type: functional
Escherichia coli [12] = assay: Antimicrobial activity against Escherichia coli CU164A expressing beta-lactamase TEM-1 by liquid microdilution method; type: functional
Escherichia coli [13] = assay: Antimicrobial activity against Escherichia coli CU164A harboring beta-lactamase L2 by liquid microdilution method
Escherichia coli [14] = assay: Antimicrobial activity against mreB-deficient Escherichia coli YLS-3 harboring beta-lactamase AmpC by liquid microdilution method
Escherichia coli [15] = assay: Antimicrobial activity against mreB-deficient Escherichia coli YLS-3 harboring beta-lactamase CTX-M-14 by liquid microdilution method; type: functional
Escherichia coli [16] = assay: Antimicrobial activity against Escherichia coli CU164A harboring beta-lactamase AmpC by liquid microdilution method
Escherichia coli [17] = assay: Antimicrobial activity against mreB-deficient Escherichia coli YLS-3 harboring beta-lactamase L1 by liquid microdilution method
Escherichia coli [18] = assay: Antimicrobial activity against Escherichia coli CU164A harboring beta-lactamase CTX-M-14 by liquid microdilution method; type: functional
Escherichia coli [19] = assay: Antimicrobial activity against Escherichia coli MC4100A harboring beta-lactamase AmpC by liquid microdilution method; type: functional
Escherichia coli [20] = assay: Antimicrobial activity against translocase tatC-deficient Escherichia coli B1LK0A harboring beta-lactamase L2 by liquid microdilution method; type: functional
Escherichia coli [21] = assay: Antimicrobial activity against translocase tatC-deficient Escherichia coli B1LK0A harboring empty plasmid by liquid microdilution method; type: functional
Escherichia coli [22] = assay: Antimicrobial activity against mreB-deficient Escherichia coli YLS-3 harboring empty plasmid by liquid microdilution method; type: functional
Escherichia coli [23] = assay: Antimicrobial activity against Escherichia coli MC4100A harboring empty plasmid by liquid microdilution method; type: functional
Escherichia coli [24] = assay: Antimicrobial activity against Escherichia coli CU164A harboring empty plasmid by liquid microdilution method; type: functional

Compound	MIC (Escherichia coli [1]) [µg/mL]	MIC (Escherichia coli [2]) [µg/mL]	MIC (Escherichia coli [3]) [µg/mL]	MIC (Escherichia coli [4]) [µg/mL]	MIC (Escherichia coli [5]) [µg/mL]	MIC (Escherichia coli [6]) [µg/mL]	MIC (Escherichia coli [7]) [µg/mL]	MIC (Escherichia coli [8]) [µg/mL]	MIC (Escherichia coli [9]) [µg/mL]	MIC (Escherichia coli [10]) [µg/mL]	MIC (Escherichia coli [11]) [µg/mL]	MIC (Escherichia coli [12]) [µg/mL]	MIC (Escherichia coli [13]) [µg/mL]	MIC (Escherichia coli [14]) [µg/mL]	MIC (Escherichia coli [15]) [µg/mL]	MIC (Escherichia coli [16]) [µg/mL]	MIC (Escherichia coli [17]) [µg/mL]	MIC (Escherichia coli [18]) [µg/mL]	MIC (Escherichia coli [19]) [µg/mL]	MIC (Escherichia coli [20]) [µg/mL]	other results
CO/N=C(\C(=O)N[C@@H]1C(=O)N2C(C(=O)O)=C(COC(C)=O)CS[C@H]12)c1csc(N)n1 [CEFOTAXIME]	≤ 0.06	16 (≈ 35.1 µM)	1 (≈ 2.2 µM)	16 (≈ 35.1 µM)	≤ 0.06	1 (≈ 2.2 µM)	0.06 (≈ 0.132 µM)	0.5 (≈ 1.1 µM)	2 (≈ 4.39 µM)	≤ 0.06	1 (≈ 2.2 µM)	≤ 0.06	2 (≈ 4.39 µM)	0.12 (≈ 0.263 µM)	4 (≈ 8.78 µM)	0.5 (≈ 1.1 µM)	0.06 (≈ 0.132 µM)	16 (≈ 35.1 µM)	0.5 (≈ 1.1 µM)	–	–
CC1(C)S[C@@H]2[C@H](NC(=O)[C@H](N)c3ccc(O)cc3)C(=O)N2[C@H]1C(=O)O [AMOXICILLIN]	256 (≈ 701 µM)	2050 (≈ 5600 µM)	1020 (≈ 2800 µM)	2050 (≈ 5600 µM)	1020 (≈ 2800 µM)	512 (≈ 1400 µM)	256 (≈ 701 µM)	512 (≈ 1400 µM)	64 (≈ 175 µM)	512 (≈ 1400 µM)	512 (≈ 1400 µM)	1020 (≈ 2800 µM)	512 (≈ 1400 µM)	128 (≈ 350 µM)	1020 (≈ 2800 µM)	512 (≈ 1400 µM)	512 (≈ 1400 µM)	2050 (≈ 5600 µM)	512 (≈ 1400 µM)	4 (≈ 10.9 µM)	MIC (Escherichia coli [21]): 4 µg/mL (≈ 10.9 µM); MIC (Escherichia coli [22]): 4 µg/mL (≈ 10.9 µM); MIC (Escherichia coli [23]): 4 µg/mL (≈ 10.9 µM); MIC (Escherichia coli [24]): 4 µg/mL (≈ 10.9 µM)
CC(C)(O/N=C(\C(=O)N[C@@H]1C(=O)N2C(C(=O)[O-])=C(C[n+]3ccccc3)CS[C@H]12)c1csc(N)n1)C(=O)O [CEFTAZIDIME]	≤ 0.06	1 (≈ 1.83 µM)	8 (≈ 14.6 µM)	1 (≈ 1.83 µM)	≤ 0.06	8 (≈ 14.6 µM)	0.06 (≈ 0.11 µM)	0.25 (≈ 0.457 µM)	4 (≈ 7.32 µM)	≤ 0.06	8 (≈ 14.6 µM)	≤ 0.06	4 (≈ 7.32 µM)	0.06 (≈ 0.11 µM)	0.5 (≈ 0.915 µM)	0.25 (≈ 0.457 µM)	0.06 (≈ 0.11 µM)	1 (≈ 1.83 µM)	0.25 (≈ 0.457 µM)	≤ 0.06	MIC (Escherichia coli [21]): ≤ 0.06 µg/mL; MIC (Escherichia coli [22]): ≤ 0.06 µg/mL; MIC (Escherichia coli [23]): ≤ 0.06 µg/mL; MIC (Escherichia coli [24]): ≤ 0.06 µg/mL
CCN1CCN(C(=O)N[C@@H](C(=O)N[C@@H]2C(=O)N3[C@@H]2SC(C)(C)[C@@H]3C(=O)O)c2ccccc2)C(=O)C1=O [PIPERACILLIN]	32 (≈ 61.8 µM)	512 (≈ 989 µM)	64 (≈ 124 µM)	512 (≈ 989 µM)	512 (≈ 989 µM)	32 (≈ 61.8 µM)	32 (≈ 61.8 µM)	32 (≈ 61.8 µM)	128 (≈ 247 µM)	128 (≈ 247 µM)	32 (≈ 61.8 µM)	256 (≈ 495 µM)	128 (≈ 247 µM)	16 (≈ 30.9 µM)	128 (≈ 247 µM)	32 (≈ 61.8 µM)	32 (≈ 61.8 µM)	512 (≈ 989 µM)	32 (≈ 61.8 µM)	≤ 2	MIC (Escherichia coli [21]): ≤ 2 µg/mL; MIC (Escherichia coli [22]): ≤ 2 µg/mL; MIC (Escherichia coli [23]): 2 µg/mL (≈ 3.86 µM); MIC (Escherichia coli [24]): 2 µg/mL (≈ 3.86 µM)
CC(=O)OCC1=C(C(=O)O)N2C(=O)[C@@H](NC(=O)Cc3cccs3)[C@H]2SC1 [CEPHALOTHIN]	8 (≈ 20.2 µM)	512 (≈ 1290 µM)	128 (≈ 323 µM)	1020 (≈ 2580 µM)	32 (≈ 80.7 µM)	128 (≈ 323 µM)	64 (≈ 161 µM)	256 (≈ 646 µM)	256 (≈ 646 µM)	16 (≈ 40.4 µM)	128 (≈ 323 µM)	32 (≈ 80.7 µM)	256 (≈ 646 µM)	256 (≈ 646 µM)	128 (≈ 323 µM)	512 (≈ 1290 µM)	32 (≈ 80.7 µM)	1020 (≈ 2580 µM)	1020 (≈ 2580 µM)	≤ 2	MIC (Escherichia coli [21]): ≤ 2 µg/mL; MIC (Escherichia coli [22]): ≤ 2 µg/mL; MIC (Escherichia coli [23]): 4 µg/mL (≈ 10.1 µM); MIC (Escherichia coli [24]): 4 µg/mL (≈ 10.1 µM)
